# Laboratory results from patent US10603357B2, “Therapeutic TREM-1 peptides” (Universite de Lorraine, priority 2004, dated 2020).
# Legend:
# [1] = test system: human monocytes; test: in vitro stimulation of monocytes: TNF-α, IL-1β and sTREM-1 release; assay type: cell-based; settings: P5 or control peptide 10 to 100 ng/mL, rIL-10 500 U/mL
# Protocol: For cell activation, primary monocytes were cultured in 24-well flat-bottom tissue culture plates in the presence of LPS (1 μg/mL). In some experiments this stimulus was provided in combination with P5 (10 to 100 ng/mL), control peptide (10 to 100 ng/mL) or rIL-10 (500 U/mL). To activate monocytes through TREM-1, an agonist anti-TREM-1 mAb (10 μg/mL) was added as indicated. Cell-free supernatants were analysed for production of TNF-α, IL-1β. and sTREM-1 by ELISA or immunodot. All experiments were performed in triplicate and data are expressed as means (SEM). • a: Media • b: P5 10 ng/mL • c: Anti-TREM-1 • d: LPS • e: LPS+Anti-TREM-1 • f: LPS+P5 10 ng/mL • g: LPS+P5 50 ng/mL • h: LPS+P5 100 ng/mL • i: LPS+IL10
# Ten mL of peripheral blood samples were collected on EDTA-K from 5 healthy volunteer donors originating from laboratory staff. After dilution in RPMI (Life Technologies, Grand Island, N.Y.) v/v, blood was centrifuged for 30 min at room temperature over a Ficoll gradient (Amersham Pharmacia, Uppsala, Sweden) to isolate PBMC. The cells recovered above the gradient were washed and counted. In order to deplete the suspensions of lymphocytes, cells were then plated in 24-well flat-bottom tissue culture plates (Corning, Corning, N.Y.) at a concentration of 5×10^6/mL and allowed to adhere during 2 hours at 37° C. The resulting lymphocyte suspension was discarded and the adhering monocytic cells were maintained in a 5% CO2 incubator at 37° C. in complete medium (RPMI 1640, 0.1 mM sodium pyruvate, […], 50 μg/mL Streptomycin; Life Technologies) supplemented with 10% FCS (Invitrogen, Cergy, France).
# For activation, monocytes were cultured in the presence of E. coli LPS (0111:B4, 1 μg/mL, Sigma-Aldrich, La Verpillière, France). Cell viability was assessed by trypan blue exclusion and by measuring lactate dehydrogenase release. In some experiments, this stimulus was given in combination with TNF-α (5 to 100 ng/mL, R&D Systems, Lille, France), IL-1β (5 to 100 ng/mL, R&D Systems), rIFN-γ (up to 100 U/mL, R&D Systems), rIL-10 (500 U/ml, R&D Systems) or up to 100 ng/mL of P5 or control peptide.
# In order to activate monocytes through TREM-1, an anti-TREM-1 agonist monoclonal antibody (R&D Systems) was added as follows: flat-bottom plates were precoated with 10 μg/mL anti-TREM-1 per well. After thorough washing in phosphate buffered saline (PBS), the monocyte suspensions were added at a similar concentration as above. Some experiments were performed in the presence of protease inhibitors (PMSF and Protease Cocktail Inhibitor; Invitrogen). Cell-free supernatants were assayed for the production of TNF-α and IL-1β by ELISA according to the recommendations of the manufacturer (BD Biosciences, San Diego, USA). To address the effect of P5 on NF-κB activity in monocytes, an ELISA-based assay was performed (BD Mercury™ Transfactor Kit, BD Biosciences). Monocytes were cultured for 24 hours in the presence of E. coli LPS (O111:B4, 1 μg/mL), and/or an agonist anti-TREM-1 monoclonal antibody (10 μg/mL), and/or P5 (100 ng/mL). Whole-cell extracts were then prepared and levels of NF-κB p50 and p65 were determined according to the recommendations of the manufacturer. All experiments were performed in triplicate and data are expressed as means (SEM). Identification and Quantitation of sTREM-1 Release
# Primary monocytes suspensions were cultured as described above. The cells were treated with E. coli LPS (0111:B4, 1 μg/mL) for 24 hours at 37° C. Cell-conditioned medium was submitted to Western-blotting using an anti-TREM-1 monoclonal antibody (R&D Systems) in order to confirm the presence of 27 kDa material recognized by anti-TREM-1. Soluble TREM-1 levels were measured by assessing the optical intensity of bands on immunodots by means of a reflectance scanner and the Quantity One Quantitation Software (Bio-Rad, Cergy, France) as reported elsewhere (18). […]
# [2] = test system: C57BL/6 mice; test: cecal ligation and puncture (CLP), survival of mice (Example 1); assay type: in vivo, mouse; settings: 200 μl of 600 μM i.p. 5 and 24 hours after CLP; 5 days after CLP; 15 per group
# Protocol: CLP was induced in C57BL/6 mice (15 per group) as described in Materials and Methods. P1 peptide (empty dots) or P3 peptide (filled squares) (200 μl of a 600 μM solution per mouse) were injected intraperitoneally 5 and 24 hours after CLP induction. Viability of mice was monitored twice a day for 10 days. Statistical analysis was performed with the Logrank test.
# In order to investigate whether TREM-1 peptide treatment could be delayed until after the administration of LPS, the Inventors injected the peptides at 4 hours after LPS injection. […] 80% of the mice injected with P1 4 hours after LPS survived endotoxaemia compared to 60% of mice treated 1 h before LPS and 10% of mice treated with vehicle alone (p<0.001 and p<0.01 respectively). Thus, P1 is effective even when injected after the outbreak of endotoxaemia. […] P1 administration conferred maximal protection (80%) when administered at 600 μM (p<0.01) and the level of protection dropped to 50% at 300 μM (p<0.05) and further down to 30% at 150 μM as compared to 20% of control mice, indicating a dose dependent effect of P1 (FIG. 4). The Inventors then investigated whether P1 protects against septic shock in the “CLP” model (Cecal Ligation and Puncture is a widely used experimental model of sepsis). […]
Sequence,TNF-α and IL-1β production (release of inflammatory cytokines) in monocyte supernatant ([1]; LPS 1 μg/mL or LPS + anti-TREM-1 mAb),release of sTREM-1 from monocytes cultured with LPS ([1]; LPS 1 μg/mL),mice surviving after CLP [2] [%]
LQVTDSGLYRCVIYHPP [P5],"reduced, in a concentration-dependent manner",increased,
LVVTQRPFTRPSEVHMGKFTLKH (listed as Mus musculus) [P1],,,40
